# Measurements from patent publication US20230107642A1 (Erasca, Inc., priority 2020, published 2023).
# Target: T1, Cys12 of the KRAS 4B G12C protein (Homo sapiens, UniProt P01116, G12C)
# T1 construct: This protein contained 188 amino acids in total, including an N-terminal 6-Histidine tag; made in house; host or cells: E. coli BL21
# Assay: In vitro covalent adduct formation (CAF) assay, LC-MS intact mass
# Type: binding
# Settings: 10 uM compound, 60 min
# Outline: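 Percent covalent modification from intact-mass LC-MS, by relative free versus adducted protein (adducts within 1 Da of expected mass). Reaction: 10 μM compound with 5 μM E. coli-expressed, GDP-exchanged KRAS 4B G12C in TBS pH 7.4, 4% DMSO, 1 h at 22° C.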
row,% CAF 10 uM @ 60 min,Compound
1,93%,"C=CC(=O)N1[C@H](C)CN(c2nc(=O)n3c4c(c(-c5ccc(F)cc5)c(C(F)(F)F)cc24)SCC(CO)(CO)C3)C[C@@H]1C [Example 1430, 8-((3S,5R)-4-acryloyl-3,5-dimethylpiperazin-1-yl)-11-(4-fluorophenyl)-3,3-bis(hydroxymethyl)-10-(trifluoromethyl)-3,4-dihydro-2H,6H-[1,4]thiazepino[2,3,4-ij]quinazolin-6-one]"
2,96.8%,"C=CC(=O)N1[C@H](C)CN(c2nc(=O)n3c4c(c(-c5ccc(F)cc5F)c(Cl)cc24)SC[C@@H]3COC)C[C@@H]1C [Example 1343a, (3S)-7-((3S,5R)-4-acryloyl-3,5-dimethylpiperazin-1-yl)-9-chloro-10-(2,4-difluorophenyl)-3-(methoxymethyl)-2,3-dihydro-5H-[1,4]thiazino[2,3,4-ij]quinazolin-5-one]"
3,96.2%,"C=CC(=O)N1CCN(c2nc(=O)n3c4c(c(-c5ccc(F)c(Cl)c5)c(C(F)(F)F)cc24)SC[C@@H]3COCOC)CC1 [Example 1362, (S)-7-(4-acryloylpiperazin-1-yl)-10-(3-chloro-4-fluorophenyl)-3-((methoxymethoxy)methyl)-9-(trifluoromethyl)-2,3-dihydro-5H-[1,4]thiazino[2,3,4-ij]quinazolin-5-one]"
4,95.9%,"C=CC(=O)N1CCN(c2nc(=O)n3c4c(c(-c5ccc(F)cc5F)c(C(F)(F)F)cc24)SC[C@@H]3CN2CCN(C3CC3)CC2)CC1 (atropisomer, axis not shown) [Example 1391, (3S,10S)-7-(4-acryloylpiperazin-1-yl)-3-((4-cyclopropylpiperazin-1-yl)methyl)-10-(2,4-difluorophenyl)-9-(trifluoromethyl)-2,3-dihydro-5H-[1,4]thiazino[2,3,4-ij]quinazolin-5-one]"
5,96%,"C=CC(=O)N1[C@H](C)CN(c2nc(=O)n3c4c(c(-c5ccc(F)c(OC(F)F)c5)c(Cl)cc24)SC[C@@H]3COC)C[C@@H]1C [Example 1343, (S)-7-((3S,5R)-4-acryloyl-3,5-dimethylpiperazin-1-yl)-9-chloro-10-(3-(difluoromethoxy)-4-fluorophenyl)-3-(methoxymethyl)-2,3-dihydro-5H-[1,4]thiazino[2,3,4-ij]quinazolin-5-one]"
6,96.7%,"C=CC(=O)N1CCN(c2nc(=O)n3c4c(c(-c5cc(Cl)c(F)cc5F)c(C(F)(F)F)cc24)SC[C@@H]3CN2CCN(CC)CC2)CC1 (atropisomer, axis not shown) [Example 1337, (3S,10S)-7-(4-acryloylpiperazin-1-yl)-10-(5-chloro-2,4-difluorophenyl)-3-((4-ethylpiperazin-1-yl)methyl)-9-(trifluoromethyl)-2,3-dihydro-5H-[1,4]thiazino[2,3,4-ij]quinazolin-5-one]"
7,84%,"C=CC(=O)N1C[C@H](C)N(c2nc(=O)n3c4c(c(-c5cc(Cl)c(F)cc5F)c(C(F)(F)F)cc24)SCC2(CCOCC2)C3)C[C@H]1C [Example 1435, 8′-((2S,5R)-4-acryloyl-2,5-dimethylpiperazin-1-yl)-11′-(5-chloro-2,4-difluorophenyl)-10′-(trifluoromethyl)-2,3,5,6-tetrahydro-2′H,4′H,6′H-spiro[pyran-4,3′-[1,4]thiazepino[2,3,4-ij]quinazolin]-6′-one]"
8,94%,"C=CC(=O)N1[C@H](C)CN(c2nc(=O)n3c4c(c(-c5nc(N)ccc5I)c(C(F)(F)F)cc24)SC[C@@H]3COC)C[C@@H]1C [Example 1449, (3S)-7-((3S,5R)-4-acryloyl-3,5-dimethylpiperazin-1-yl)-10-(6-amino-3-iodopyridin-2-yl)-3-(methoxymethyl)-9-(trifluoromethyl)-2,3-dihydro-5H-[1,4]thiazino[2,3,4-ij]quinazolin-5-one]"

# Second part, the compound before the results:
row,Compound,% CAF 10 uM @ 60 min
1,"C=CC(=O)N1C2CCC1CN(c1nc(=O)n3c4c(c(-c5cc(Cl)c(F)cc5F)c(C(F)(F)F)cc14)SCC1(COC1)C3)C2 [Example 1401, (R)-8′-((1R,5S)-8-acryloyl-3,8-diazabicyclo[3.2.1]octan-3-yl)-11′-(5-chloro-2,4-difluorophenyl)-10′-(trifluoromethyl)-2′H,4′H,6′H-spiro[oxetane-3,3′-[1,4]thiazepino[2,3,4-ij]quinazolin]-6′-one]",76.6%
2,"(3S,10R)-7-((2S,5R)-4-acryloyl-2,5-dimethylpiperazin-1-yl)-10-(5-chloro-2,4-difluorophenyl)-3-((4-cyclopropylpiperazin-1-yl)methyl)-9-(trifluoromethyl)-2,3-dihydro-5H-[1,4]thiazino[2,3,4-ij]quinazolin-5-one [Example 1360]",92.8%
3,C=CC(=O)N1CCN(c2nc(=O)n3c4c(c(-c5cc(Cl)c(F)cc5F)c(C(F)(F)F)cc24)SC[C@@H]3CN2C[C@@H]3C[C@H]2CO3)CC1 [Example 1311],95.4%
4,"C=CC(=O)N1C[C@H](C)N(c2nc(=O)n3c4c(c(-c5cccc6cnn(C)c56)c(Cl)cc24)SC[C@@H]3CN2CCN(C3CC3)CC2)C[C@H]1C [Example 1310, (3S)-7-((2S,5R)-4-acryloyl-2,5-dimethylpiperazin-1-yl)-9-chloro-3-((4-cyclopropylpiperazin-1-yl)methyl)-10-(1-methyl-1H-indazol-7-yl)-2,3-dihydro-5H-[1,4]thiazino[2,3,4-ij]quinazolin-5-one]",95%
5,"C=CC(=O)N1CCN(c2nc(=O)n3c4c(c(-c5ccc(F)cc5F)c(C(F)(F)F)cc24)SC[C@@H]3CN2CCN(CC)CC2)CC1 (atropisomer, axis not shown) [Example 1318, (3S,10R)-7-(4-acryloylpiperazin-1-yl)-10-(2,4-difluorophenyl)-3-((4-ethylpiperazin-1-yl)methyl)-9-(trifluoromethyl)-2,3-dihydro-5H-[1,4]thiazino[2,3,4-ij]quinazolin-5-one]",99.6%

# Same assay, conditions: 10 uM compound, 60 min incubation
row,% CAF 10 uM @ 60 min,Compound
1,92.4%,"C=CC(=O)N1[C@H](C)CN(c2nc(=O)n3c4c(c(-c5ccc(F)cc5)c(C(F)(F)F)cc24)SC[C@H](N2CCOCC2)C3)C[C@@H]1C [Example 1112, (R)-8-((3S,5R)-4-acryloyl-3,5-dimethylpiperazin-1-yl)-11-(4-fluorophenyl)-3-morpholino-10-(trifluoromethyl)-3,4-dihydro-2H,6H-[1,4]thiazepino [2,3,4-ij]quinazolin-6-one]"
2,65.8%,"C=CC(=O)N1CCN(c2nc(=O)n3c4c(c(-c5ccc(F)cc5F)c(C(F)(F)F)cc24)SCC2(COC2)C3)CC1 (atropisomer, axis not shown) [Example 1128, (S)-8′-(4-acryloylpiperazin-1-yl)-11′-(2,4-difluorophenyl)-10′-(trifluoromethyl)-2′H,4′H,6′H-spiro[oxetane-3,3′-[1,4]thiazepino [2,3,4-ij]quinazolin]-6′-one]"

# Same assay, conditions: 10 μM compound, after 1 hour
row,CAF (% after 1 hour),Compound
1,95%,"C=CC(=O)N1[C@H](C)CN(c2nc(=O)n3c4c(c(-c5cc(Cl)c(F)cc5F)c(C(F)(F)F)cc24)SCC2(CCC2)C3)C[C@@H]1C [Example 1238, 8′-((3S,5R)-4-acryloyl-3,5-dimethylpiperazin-1-yl)-11′-(5-chloro-2,4-difluorophenyl)-10′-(trifluoromethyl)-2′H,4′H,6′H-spiro[cyclobutane-1,3′-[1,4]thiazepino[2,3,4-ij]quinazolin]-6′-one]"
2,94%,"C=CC(=O)N1[C@H](C)CN(c2nc(=O)n3c4c(c(-c5cc(Cl)c(F)cc5F)c(C(F)(F)F)cc24)SC[C@@H](Oc2cc(C)on2)C3)C[C@@H]1C [Example 1230, (3S,11R)-8-((3S,5R)-4-acryloyl-3,5-dimethylpiperazin-1-yl)-11-(5-chloro-2,4-difluorophenyl)-3-((5-methylisoxazol-3-yl)oxy)-10-(trifluoromethyl)-3,4-dihydro-2H,6H-[1,4]thiazepino[2,3,4-ij]quinazolin-6-one]"
3,59%,"C=C(F)C(=O)N1[C@H](C)CN(c2nc(=O)n3c4c(c(-c5ccc(F)cc5)c(C(F)(F)F)cc24)SC[C@@H](OC)C3)C[C@@H]1C [Example 1222, (S)-8-((3S,5R)-4-(2-Fluoroacryloyl)-3,5-dimethylpiperazin-1-yl)-11-(4-fluorophenyl)-3-methoxy-10-(trifluoromethyl)-3,4-dihydro-2H,6H-[1,4]thiazepino[2,3,4-ij]quinazolin-6-one]"
4,50%,"C=CC(=O)N1CCN(c2nc(=O)n3c4c(c(-c5cc(Cl)c(F)cc5F)c(C(F)(F)F)cc24)SC[C@@H](OC)C3)[C@@H]2CN(S(C)(=O)=O)C[C@@H]21 [Example 1212, (3S)-8-((4aS,7aR)-4-acryloyl-6-(methylsulfonyl)octahydro-1H-pyrrolo[3,4-b]pyrazin-1-yl)-11-(5-chloro-2,4-difluorophenyl)-3-methoxy-10-(trifluoromethyl)-3,4-dihydro-2H,6H-[1,4]thiazepino[2,3,4-ij]quinazolin-6-one]"

# Same assay, conditions: after 60 min
row,CAF (% binding after 60 min),Compound
1,95%,"C=CC(=O)N1[C@H](C)CN(c2nc(=O)n3c4c(c(-c5ccc(F)cc5F)c(C(F)(F)F)cc24)SC[C@H](OCCOC)C3)C[C@@H]1C [Example 1026, (3R)-8-((3S,5R)-4-acryloyl-3,5-dimethylpiperazin-1-yl)-11-(2,4-difluorophenyl)-3-(2-methoxyethoxy)-10-(trifluoromethyl)-3,4-dihydro-2H,6H-[1,4]thiazepino[2,3,4-ij]quinazolin-6-one]"
2,97%,"C=CC(=O)N1CCN(c2nc(=O)n3c4c(c(-c5ccc(F)c(Cl)c5)c(C(F)(F)F)cc24)SC[C@H](OC)C3)CC1 [Example 1043, (R)-8-(4-acryloylpiperazin-1-yl)-11-(3-chloro-4-fluorophenyl)-3-methoxy-10-(trifluoromethyl)-3,4-dihydro-2H,6H-[1,4]thiazepino[2,3,4-ij]quinazolin-6-one]"
